The results in this text go back to patent US5760036A, “Aminediol protease inhibitors” (E. R. Squibb & Sons, Inc., priority 1995, dated 1998).

Test [1] concerns the target T1, HIV protease (Human immunodeficiency virus type 1 group M subtype B, UniProt P04585).
T1 construct: and purified protease
The test can be described thus: HIV Protease Assay. Format: biochemical. The method in brief: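 Purified protease cleaved 450 μM octapeptide substrate in 50 mM sodium acetate pH 5.5 with 100 μg/ml BSA for 30 minutes at 37° C; product analyzed by reverse-phase HPLC at UV220 after H3PO4 quench. Inhibitors tested at final 10 μM with 4% DMSO.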

In test [2] the test system is RF strain of HIV (CEM-SS cells). Put plainly: Cell Culture Anti-HIV Activity (cell viability, formazan). It counts as cell-based. The conditions noted are these: Human immunodeficiency virus 1, CEM-SS, 144 h, CEM-SS cells, RF strain of HIV, multiplicity of infection 0.04, 6 days at 37° C., 450 nm; read-out: HIV (CEM Cells) IC50. An outline of the steps: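 CEM-SS cells (5000/well) infected with HIV RF at MOI 0.04, exposed to half-log serial compound dilutions, incubated 6 days at 37° C. Viability read by tetrazolium reduction to formazan, absorbance 450 nm. IC50 is the concentration raising formazan in infected cells to 50% of uninfected, drug-free cells.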

Setting [3] is: pH 5.5, read-out: HIV Protease % Inhibition at 10 μM.
Setting [4] is: pH 5.5, 10 μM inhibitor, 4% DMSO, 450 μM substrate, pH 5.5, 30 minutes at 37° C., RP-HPLC, read-out: HIV Protease % Inhibition at 10 μM.

Like-named read-outs stand apart in the source and are kept apart here. Bounds are passed on as bounds.

For `CC(C)(C)CC(=O)N[C@@H](Cc1ccccc1)[C@H](O)CNC[C@@H](O)[C@H](Cc1ccccc1)NC(=O)OC(C)(C)C` [Compound 60, [1S-[1R*,2S*(2S*,3R*)]]-[3 [[3-[(3,3-Dimethyl-1-oxybutyl)amino]-2-hydroxy-4-phenylbutyl]amino]-2-hydroxy-1-(phenylmethyl)-propyl]carbamic acid, 1,1-dimethylethyl ester], the inhibition (commonly the share of the control response that was lost under treatment) at 10 µM in test [1] (setting [3]) turned out to be 78%. In addition, in test [2], the IC50 (commonly the concentration that inhibits the measured activity by half) was found to be 1200 nM.
Take `CC(C)(C)OC(=O)N[C@@H](Cc1ccccc1)[C@H](O)CNC[C@@H](O)[C@H](Cc1ccccc1)NC(=O)OC(C)(C)CCOCc1ccccc1` [Compound 158, [1S-(1R*,2S*)]-[Iminobis[2-hydroxy-1-(phenylmethyl)-3,1-propanediyl]biscarbamic acid, 1,1-dimethylethyl 1,1-dimethyl-3-(phenylmethoxy)-propyl ester]: the inhibition at 10 µM in test [1] (setting [4]) was 97%. Also, the IC50 in test [2] was greater than 1800 nM.
The matching figures for `CC(C)[C@H](NC(=O)OC(C)(C)C)C(=O)N[C@@H](Cc1ccccc1)[C@H](O)CNC[C@@H](O)[C@H](Cc1ccccc1)NC(=O)OC(C)(C)C` [Compound 58, [S-[1R*,2S*(2S*,3R*)]-N-[3-[[3-[[(1,1-Dimethylethoxy)carbonyl]amino]-2-hydroxy-4-phenylbutyl]amino]-2-hydroxy-1-(phenylmethyl)-propyl-N^2-[(1,1-dimethylethoxy)-carbonyl]-L-valinamide]: 57% and 1000 nM.
The matching figures for `CCC(=O)N[C@H](C(=O)N[C@@H](Cc1ccccc1)[C@H](O)CNC[C@@H](O)[C@H](Cc1ccccc1)NC(=O)OC(C)(C)C)C(C)C` (relative stereo) [Compound 248, [1R*,2S*,(2S*,3R*)]-N-[3-[[3-[[(1,1-Dimethylethoxy)carbonyl]amino]-2-hydroxy-4-phenylbutyl]amino]-2-hydroxy-1-(phenylmethyl)propyl]-N^2-(1-oxopropyl)-L-valinamide]: 99% and 230 nM.
In the case of `CC(C)(C)OC(=O)N[C@@H](Cc1ccccc1)[C@H](O)CNC[C@@H](O)[C@H](Cc1ccccc1)NC(=O)C1NC(=O)CC1(C)C` (single isomer, unassigned) [Compound 267, [1S-[1R*,2S*(2S*,3R*)]]-[3-[[3-[[(3,3-Dimethyl-5-oxo-2-pyrrolidinyl)carbonyl]amino]-2-hydroxy-4-phenylbutyl]amino]-2-hydroxy-l-(phenylmethyl)propyl]carbamic acid, 1,1-dimethylethyl ester], the “HIV Protease % Inhibition at 10 μM” value in test [1] (10 μM inhibitor, 4% DMSO, 450 μM substrate, pH 5.5, 30 minutes at 37° C., RP-HPLC) is 97%. Also, the IC50 in test [2] turned out to be 180 nM.
As for `CC(C)[C@H](NC(=O)OCc1ccccc1)C(=O)N[C@@H](Cc1ccccc1)[C@H](O)CNC[C@@H](O)[C@H](Cc1ccccc1)NC(=O)[C@H](CC(N)=O)NC(=O)OC(C)(C)C` [Compound 121, [S-[1R*,2S*(2S*.3R*)]]-N^2-[(1-Dimethylethoxy)carbonyl]-N-[2-hydroxy-3-[[2-hydroxy-4-phenyl-3-[[N-[(phenylmethoxy)carbonyl]-L-valyl]amino]butyl]amino]-1-(phenylmethyl)-propyl]-L-asparaginamide], the inhibition at 10 µM in test [1] (setting [4]) was 73%. The IC50 in test [2] is greater than 300 nM.
On to `CC(C)[C@H](NC(=O)OC(C)(C)C)C(=O)N[C@@H](Cc1ccccc1)[C@H](O)CNC[C@@H](O)[C@H](Cc1ccccc1)NC(=O)[C@@H](NC(=O)OC(C)(C)C)C(C)C` [Compound 34, [S-(1R*,2S*)]-N,N'-[Iminobis[2-hydroxy-1-(phenylmethyl)-3,1-propanediyl]]bis[N^2-[(1,1-dimethylethoxy)carbonyl]-L-valinamide]], for which the inhibition at 10 µM in test [1] (setting [4]) was 20%. Besides, in test [2], the IC50 is greater than 9000 nM.
Consider `CC(C)[C@H](NC(=O)OCc1ccccc1)C(=O)N[C@@H](Cc1ccccc1)[C@H](O)CNC[C@H](O)[C@H](Cc1ccccc1)NC(=O)OC(C)(C)C` [Compound 125, [S-[1R*,2S*(2R*,3R*)]-N-[3-[[3-[[(1,1-Dimethylethoxy)carbonyl]amino]-2-hydroxy-4-phenylbutyl]amino]-2-hydroxy-1-(phenylmethyl)propyl]-N^2 [(phenylmethoxy)carbonyl]-L-valinamide], for which, in test [1] (setting [4]), the inhibition at 10 µM was 71%. For the same compound, the IC50 in test [2] is greater than 1500 nM.
The matching figures for `CC(C)[C@H](NC(=O)CCn1[nH]c2ccccc2c1=O)C(=O)N[C@@H](Cc1ccccc1)[C@H](O)CNC[C@@H](O)[C@H](Cc1ccccc1)NC(=O)OC(C)(C)C` (relative stereo) [Compound 250, [1R*,2S*(2S*,3R*)]-N^2-[3-(1,3-Dihydro-3-oxo-2H-indazol-2-yl)-1-oxopropyl]-N-[3-[[3-[[(1,1-dimethylethoxy)carbonyl]amino]-2-hydroxy-4-phenylbutyl]amino]-2-hydroxy-1-(phenylmethyl)propyl]-L-valinamide]: 100% and 1500 nM.
Consider `CC(C)(O)COc1ccc(C[C@H](NC(=O)OC(C)(C)C)[C@H](O)CNC[C@@H](O)[C@H](Cc2ccccc2)NC(=O)OC(C)(C)C)cc1` [Compound 358, [1S-[1R*,2S*(2S*,3R*)]]-[3-[[3-[[(1,1-Dimethylethoxy)carbonyl]amino]-2-hydroxy-4-[4-(2-hydroxy-2-methylpropoxy)phenyl]butyl]amino]-2-hydroxy-1-(phenylmethyl)propyl]carbamic acid, 1,1-dimethylethyl ester], for which the inhibition at 10 µM in test [1] (setting [3]) was found to be 99%. In addition, the IC50 in test [2] is 100 nM.
Turning to `CC(C)(C)OC(=O)N[C@@H](Cc1ccccc1)[C@H](O)CNC[C@@H](O)[C@H](Cc1ccccc1)NC(=O)OC1(C)CCCC1` [Compound 159, [1S-(1R*,2S*)]-[Iminobis[2-hydroxy-1-(phenylmethyl)-3,1-propanediyl]]bis-[carbamic acid], 1,1-dimethylethyl 1-methyl-cyclopentyl ester], the inhibition at 10 µM in test [1] (setting [4]) came to 100%. In test [2], the IC50 came out at 1300 nM.
`CC(C)[C@H](NC(=O)[C@@H](C)O)C(=O)N[C@@H](Cc1ccccc1)[C@H](O)CNC[C@@H](O)[C@H](Cc1ccccc1)NC(=O)OC(C)(C)C` [Compound 221, [1S-[[1R*,2S*(2S*,3R*)],N^2-(S*) ]]-N-[3-[[3-[[(1,1-Dimethylethoxy)carbonyl]amino]-2-hydroxy-4-phenylbutyl]amino]-2-hydroxy-1-(phenylmethyl)propyl]-N^2-(2-hydroxy-1-oxopropyl)-L-valinamide]: the inhibition at 10 µM in test [1] (setting [4]) is 96%. Also, the IC50 in test [2] came to 1100 nM.
As to `CC(C)(C)OC(=O)N[C@@H](Cc1ccccc1)[C@@H](O)CNC[C@H](O)[C@H](Cc1ccccc1)NC(=O)OC(C)(C)C` [Compound 3, [1S-[1R*,2R*(2R*,3R*)]]-[3-[[3-[[(1,1-Dimethylethoxy)carbonyl]amino]-2-hydroxy-4-phenylbutyl]amino]-2-hydroxy-1-(phenylmethyl)propyl]carbamic acid, 1,1-dimethylethyl ester], in test [1] (setting [4]), the inhibition at 10 µM was found to be 0%. Also, in test [2], the IC50 is greater than 3200 nM.
As for `COC(=O)N[C@H](C(=O)N[C@@H](Cc1ccccc1)[C@H](O)CNC[C@@H](O)[C@H](Cc1ccccc1)NC(=O)OC(C)(C)C)C(C)(C)C` (relative stereo) [Compound 246, [1R*,2S*(2S*,3R*)]-N-[3-[[3-[[(1,1-Dimethylethoxy)carbonyl]amino]-2-hydroxy-4-phenylbutyl]amino]-2-hydroxy-1-(phenylmethyl)propyl]-N^2-(2-methoxycarbonyl)-3-methyl-L-valinamide], the inhibition at 10 µM in test [1] (setting [4]) was determined as 100%. Besides, the IC50 in test [2] worked out at 40 nM.
